This is an account of results in US11401278B2, “Macrocyclic indole derivatives” (The Broad Institute, Inc., priority 2017, dated 2022).

The target in one assay is MCL1 protein (Homo sapiens (Human), UniProt Q07820). The assay is described as follows: PIxEL: protein-protein interaction in permeabilized cells by ELISA (Assay 5). Conditions: permeabilized RKO cells, Biotin-BIM peptide 0.2 μM, serum free; median. Type of assay: cell-based. How it is done:
PI×EL: Protein-Protein Interaction in Permeabilized Cells by ELISA
Most MCL1 protein molecules are localized at the mitochondria outer membrane and sequester pro-apoptotic proteins through binding of their BCL2 homology domain 3 (BH3 domain). MEB buffer (150 mM mannitol, 10 mM HEPES pH 7.5, 50 mM KCl, 20 μM EDTA, 20 μM EGTA, 5 mM potassium succinate, 0.1% protease-free BSA (SIGMA) with low dose digitonin (0.002%) permeabilizes plasma membrane while leaves live mitochondria, where MCL1 maintains its native localization and conformation. Unlike biophysical assays (e.g. TR-FRET) that use truncated recombinant MCL1 protein, this assay uses full length endogenous MCL1 protein at mitochondria outer membrane. It measures the interaction between MCL1 protein and biotinylated BIM BH3 peptide. Compounds can compete with BIM BH3 peptide to bind to MCL1 protein. This serum free assay measures the affinity between MCL1 protein and compound in permeabilized cells, therefore it is not affected by serum binding and cell permeability, and can measure the intrinsic compound affinity.
On day 1, RKO colon cancer cell line cells were plated at 0.8 million cells/ml, 100 μl/well in 96-well flat bottom TC plates (Corning). MCL1 antibody (Santa Cruz sc-12756) were diluted at 200 fold (final concentration 1 μg/ml) in carbonate buffer (Thermo Fisher Scientific, pH 9.6), and 50 μl of diluted antibody was added to each well of high bind ELISA plates (SARSTEDT). Each plate was tapped to make sure liquid covering entire bottom of wells and incubate at 37° C. overnight.
On the second day, MCL1 antibody was washed from ELISA plate. 250 μl Odyssey® Blocking Buffer (PBS) (Li-Cor) was added to each well, incubated at room temperature for at least 1 hour, then washed once with 250 μl 1×PBST. Plates with RKO cells were gently washed once with 100 μl/well PBS, once with 100 μl/well MEB buffer without digitonin, then 100 μl of MEB buffer with 0.002% digitonin was gently added to each well. Compounds were added with HP Tecan compound dispenser in 3-fold dilution series, highest dose 30 μM, 10-dose per compound in quadruplicates. Biotin-BIM peptide (synthesized by 21st Century) was added with HP Tecan compound dispenser at 0.2 μM immediately after the addition of compounds. Plates were rocked for 1 hour at room temperature. Then MEB buffer was aspirated and 50 μl of CHAPS buffer (50 mM Tris-Cl, pH 7.4, 150 mM NaCl, 1% CHAPS, 1 mM EDTA, 1 mM EGTA, cOmplete protease inhibitors (Roche), PhosSTOP (Roche)) was added to each well. Plates were rocked for 1 hour at 4° C., then 45 μl cell lysate from each well were transferred to ELISA plates coated with MCL1 antibody. Plates were incubated overnight in the cold room with rocking.
On the third day, ELISA plates were washed once with 250 μl 1×PBST. Streptavidin-poly-HRP (Thermo Fisher Scientific) was diluted to 20 ng/ml in Odyssey blocking buffer plus 0.05% Triton-100, and 100 μl was added to each well of the ELISA plate. Plates were incubated at room temperature for 1 hour with rocking, then washed with 100 μL 1×PBST for 3 times. Each SuperSignal ELISA Femto Maximum Sensitivity substrate was added to a 50-ml tube and mixed, then 100 μl of mixed substrate was added to each well. Plates were shaken for 1 minute then luminescence was measured by Envision plate reader […]. Signal of each well were normalized by no-compound control and no-cell control. IC50 was calculated using Graphic Pad PRISM software.
On the technique in general: ELISA stands for enzyme-linked immunosorbent assay.

Another assay addresses MCL-1 (Homo sapiens (Human), UniProt Q07820, K194A/K197A/R201A). Briefly: Protein-compound interaction assay (SPR assay, Assay 8). Type of assay: binding. The note with it: immobilized MBP-MCL-1, 25° C., geometric mean; for koff: read-out: koff; for kon: read-out: kon. The text has this: Assay 8 Protein-Compound Interaction Assay (SPR Assay)
The ability of the compounds described in this invention to bind to MCL-1 may be determined using surface plasmon resonance (SPR). This allows for the quantification of binding in terms of the equilibrium dissociation constant (KD [M]), as well as association and dissociation rate constants (kon [1/M 1/s] and koff [1/s], respectively). The measurements may be performed using Biacore® T200 or Biacore® S200 instruments (GE Healthcare).
For SPR measurements, recombinant MCL-1 (amino acids 173-321, N-terminal fused to Maltose Binding Protein (MBP) (SEQ ID 1) purchased from Beryllium (Bedford, Mass., USA)) was immobilized using standard amine coupling (Johnsson B et al, Anal Biochem. 1991 Nov. 1; 198(2):268-77). Briefly, carboxymethylated dextran biosensor chips (Series S Sensor Chip CMS, GE Healthcare) were activated with 1-ethyl-3-(3-dimethylaminopropyl)-carbodiimide hydrochloride (EDC) and N-hydroxysuccinimide (NHS) according to the supplier's instructions. MBP-MCL-1 was diluted in 1×PBS-P+ (GE Healthcare) and injected on the activated chip surface. Subsequently, a solution of 1 M ethanolamine-HCl (GE Healthcare) was injected to block unreacted groups, resulting in approximately 400-2500 response units (RU) of immobilized protein. A reference surface was generated by treatment with NHS-EDC and ethanolamine-HCl. Compounds were dissolved in 100% dimethylsulfoxide (DMSO) to a concentration of 10 mM and subsequently diluted in running buffer (1×PBS-P+ (GE Healthcare) [generated from PBS-P+ Buffer 10× (GE Healthcare): 0.2 M phosphate buffer with 27 mM KCl, 1.37 M NaCl and 0.5% Surfactant P20 (Tween 20).], 1% v/v DMSO). For SPR binding-measurements, serial dilutions of compound (eight dilution steps, typically ranging from 0.2 nM up to 1 μM) were injected over immobilized protein. […] Compounds were injected for 60 s followed by a dissociation time of up to 1000 s.
The double-referenced sensorgrams were fit to a simple reversible Langmuir 1:1 reaction mechanism as implemented in the Biacore® T200 and S200 evaluation software (T200 evaluation software version 2.0 and S200 evaluation software version 1.0, GE Healthcare).
(In general: SPR reads the build-up and loss of mass on a sensor chip optically.)

Molecules are shown by their SMILES. Structures can show the parent of a compound that is named as a salt.

Sequence of MCL1 protein (Q07820 whole entry): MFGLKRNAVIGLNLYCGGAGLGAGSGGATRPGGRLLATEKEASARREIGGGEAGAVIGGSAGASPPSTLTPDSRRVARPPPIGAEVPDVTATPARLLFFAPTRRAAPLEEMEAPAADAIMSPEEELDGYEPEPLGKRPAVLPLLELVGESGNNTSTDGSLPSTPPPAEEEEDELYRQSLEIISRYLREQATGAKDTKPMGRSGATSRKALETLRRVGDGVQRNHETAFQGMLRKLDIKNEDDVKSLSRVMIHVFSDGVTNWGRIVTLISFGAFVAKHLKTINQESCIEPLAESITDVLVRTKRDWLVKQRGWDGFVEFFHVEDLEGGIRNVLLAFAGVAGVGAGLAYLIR
Sequence of MCL-1 (Q07820 whole entry K194A/K197A/R201A, looked up): as the sequence (Q07820 whole entry) above, with K194A, K197A, R201A counted along it

By IC50 is commonly meant the concentration that inhibits the measured activity by half. The low end stands for higher potency, the high end for lower potency. Usually Kd stands for the concentration at which binding is half-saturated. Low readings indicate higher affinity, high ones lower affinity. Usually koff stands for the rate constant with which the complex falls apart. A word on the kon: it is a measure of how fast the partners come together. `Cc1c2c(nn1C)C(CCN1CCOCC1)N(C)S(=O)(=O)CCCn1c(C(=O)O)c(CCCOc3cccc4ccccc34)c3cccc-2c31` (single isomer, unassigned; enantiomer 2) [Example 46, 2,3,14-trimethyl-15-[2-(morpholin-4-yl)ethyl]-7-{3-[(naphthalen-1-yl)oxy]propyl}-13,13-dioxo-10,11,12,13,14,15-hexahydro-2H-13lambda^6-pyrazolo[3′,4′:4,5][1,2,8]thiadiazacycloundecino[6,7,8-hi]indole-8-carboxylic acid N-ethylethanamine Salt (Enantiomer 2)] registered an IC50 against MCL1 protein of 201 nM. At MCL-1, the dissociation constant (Kd) was found to be 2.8 nM, the koff was determined as 0.016 s⁻¹ and the kon is 5.6e+06 M⁻¹ s⁻¹.

On MCL1 protein, `Cc1c2c(nn1C)CN(C)S(=O)(=O)CCCn1c(C(=O)O)c(CCCOc3cccc4cc(F)ccc34)c3ccc(F)c-2c31` (single isomer, unassigned; enantiomer 2) [Example 39, (+)-4-fluoro-7-{3-[(6-fluoronaphthalen-1-yl)oxy]propyl}-2,3,14-trimethyl-13,13-dioxo-10,11,12,13,14,15-hexahydro-2H-13lambda^6-pyrazolo[3′,4′:4,5][1,2,8]thiadiazacycloundecino-[6,7,8-hi]indole-8-carboxylic acid (Enantiomer 2)] returned an IC50 of 506 nM. Further, on MCL-1, the Kd was found to be 5.3 nM, the koff was determined as 0.018 s⁻¹ and the kon stood at 3.4e+06 M⁻¹ s⁻¹.

`Cc1c2c(nn1C)CN(C1CC1)S(=O)(=O)CCCn1c(C(=O)O)c(CCCOc3cccc4cc(F)ccc34)c3ccc(Cl)c-2c31` (single isomer, unassigned; enantiomer 1) [Example 42, (−)-4-chloro-14-cyclopropyl-7-{3-[(6-fluoro-1-naphthyl)oxy]propyl}-2,3-dimethyl-11,12,14,15-tetrahydro-2H,10H-pyrazolo[3′,4′:4,5][1,2,8]thiadiazacycloundecino[6,7,8-hi]indole-8-carboxylic acid 13,13-dioxide N-diethylamine salt (Enantiomer 1)] displayed a half-inhibitory concentration (IC50) against MCL1 protein of 157 nM. In addition, on MCL-1, the Kd was found to be 7.6 nM, the koff stood at 0.016 s⁻¹ and the on-rate (kon) amounted to 2.1e+06 M⁻¹ s⁻¹.

With `CCc1c2c(nn1C)CN(C)S(=O)(=O)CCCn1c(C(=O)O)c(CCCOc3cccc4cc(F)ccc34)c3ccc(Cl)c-2c31` (single isomer, unassigned; enantiomer 1) [Example 36, (+)-4-chloro-3-ethyl-7-{3-[(6-fluoronaphthalen-1-yl)oxy]propyl}-2,14-dimethyl-13,13-dioxo-10,11,12,13,14,15-hexahydro-2H-13lambda^6-pyrazolo[3′,4′:4,5][1,2,8]thiadiazacycloundecino-[6,7,8-hi]indole-8-carboxylic acid (Enantiomer 1)], half-maximal inhibition against MCL1 protein (IC50) was put at 86.6 nM. Moreover, at MCL-1, the Kd is 4 nM, the koff was found to be 0.004 s⁻¹ and the kon is 1e+06 M⁻¹ s⁻¹.

Turning to `CCc1c2c(nn1C)CN(C)S(=O)(=O)CCCn1c(C(=O)O)c(CCCOc3cccc4cc(F)ccc34)c3ccc(F)c-2c31` (single isomer, unassigned; enantiomer 1) [Example 8, (+)-3-Ethyl-4-fluoro-7-{3-[(6-fluoronaphthalen-1-yl)oxy]propyl}-2,14-dimethyl-13,13-dioxo-10,11,12,13,14,15-hexahydro-2H-13λ^6-pyrazolo[3′,4′:4,5][1,2,8]thiadiazacycloundecino-[6,7,8-hi]indole-8-carboxylic acid (Enantiomer 1)], the half-maximal inhibitory concentration (IC50) on MCL1 protein amounted to 552 nM. On MCL-1, the Kd was determined as 3.6 nM, the koff was found to be 0.008 s⁻¹ and the kon amounted to 2.2e+06 M⁻¹ s⁻¹.

Compound `Cc1c2c(nn1C)C(CCN1CCOCC1)N(C)S(=O)(=O)CCCn1c(C(=O)O)c(CCCOc3cccc4cc(F)ccc34)c3ccc(Cl)c-2c31` (single isomer, unassigned; enantiomer 2) [Example 67, 4-chloro-7-{3-[(6-fluoronaphthalen-1-yl)oxy]propyl}-2,3,14-trimethyl-15-[2-(morpholin-4-yl)ethyl]-13,13-dioxo-10,11,12,13,14,15-hexahydro-2H-13lambda^6-pyrazolo[3′,4′:4,5][1,2,8]thiadiazacycloundecino[6,7,8-hi]indole-8-carboxylic acid (Enantiomer 2)] returned an IC50 against MCL1 protein of 8.74 nM.

`CCc1c2c(nn1C)C(CCC1CCOCC1)N(C)S(=O)(=O)CCCn1c(C(=O)O)c(CCCOc3cccc4cc(F)ccc34)c3ccc(Cl)c-2c31` (single isomer, unassigned; enantiomer 1) [Example 61, (+)-4-chloro-3-ethyl-7-{3-[(6-fluoronaphthalen-1-yl)oxy]propyl}-2,14-dimethyl-15-[2-(oxan-4-yl)ethyl]-13,13-dioxo-10,11,12,13,14,15-hexahydro-2H-13lambda^6-pyrazolo[3′,4′:4,5][1,2,8]thiadiazacycloundecino[6,7,8-hi]indole-8-carboxylic acid (Enantiomer 1)]: at MCL1 protein, half-maximal inhibition (IC50) required 14.2 nM. Moreover, on MCL-1, the Kd amounted to 1.9 nM, the off-rate constant (koff) came out at 0.0012 s⁻¹ and the kon was determined as 590000 M⁻¹ s⁻¹.
